{
  "source": "patent US20040235922A1",
  "about": "“Compositions and methods for inducing adipose tissue cell death” (priority 2003, published 2004)",
  "key": {"[1]": {"experiment": "21 day oral (diet) treatment of mice: body weight, food intake, feed efficiency, body temperature, body composition by PIXImus densitometry (Example 1)", "assay_type": "in vivo", "conditions": "21 days, ICR mice", "method": "(§1) The effects of clenbuterol, a β2-AR agonist, and ractopamine, a β1/β2-AR agonist, on growth, adiposity and adipose tissue apoptosis in male and female mice have been tested by feeding diets containing control, 200 ppm clenbuterol, or 200 or 800 ppm ractopamine. Food intake (FI) was measured daily; body weight (BW) and temperatures (BT) were measured on days 0, 3, 7, 10, 14, 17, and 20. On day 21 mice were sacrificed, body composition was determined using PIXImus densitometry, and muscle and adipose tissues were collected. There were no treatment effects on BT, FI, BW, feed efficiency or body composition. Retroperitoneal (Rp) and epididymal/parametrial (Epi/Par) fat pad masses were reduced in both 800 ppm ractopamine (40±3 and 207±20 mg, respectively) and clenbuterol (35±7 and 211±22 mg) treated mice compared to control (66±8 and 319±30 mg, p<0.05). Brown adipose tissue (BAT) mass was greater (p<0.05) in clenbuterol treated mice compared to other treatments. Adipose tissue apoptosis (% DNA fragmentation) was increased in Epi/Par fat pads in clenbuterol (5.2+1.1%) and 800 ppm ractopamine (4.1±0.8%) treated mice compared to control (1.7+0.4%, p<0.05).\n(§2) Animals: Five week old male (n=20) and female (n=20) ICR mice (Harlan Research Laboratories, Indianapolis, Ind.) were allowed to acclimate for one week prior to the experiment start date. Animals were housed singly in suspended wire cages and were provided ground rodent chow (ProLab® RMH 2500; Purina Mills, St. Louis, Mo.) and water ad libitum. Ambient room temperature was maintained and the light/dark cycle was 0600/1800 hours, respectively. Animals were cared for in accordance with the Guide for the Care and Use of Laboratory Animals (Institute of Laboratory Animal Resources Commission on Life Sciences National Research Council. Guide for the Care and Use of Laboratory Animals. National Academy of Sciences, 1996). Prior to the start of the study, animals were briefly anesthetized with isofluorane and an IPPT-200 transponder (programmable ID and temperature, BMDS, Seaford, Del.) was implanted subcutaneously between the scapulae.\n(§3) Materials: Test articles included clenbuterol (Sigma Chemical Company, St. Louis, Mo., item # C5423) and ractopamine hydrochloride—Paylean® 9 (Elanco Animal Health, Indianapolis, Ind.). Clenbuterol is available as a pure product, and ractopamine is readily available as a type A medicated article. Paylean® 9 contains about 20 g ractopamine hydrochloride per kilogram in a ground corncob base. In order to achieve doses of 200 and 800 ppm it was necessary to add about […] of product per kilogram of diet. Control and clenbuterol diets were prepared with about 80 g of alphacel, which is a diluent used to mimic the effect of the corncob in the ractopamine product. The dose of clenbuterol used in this experiment was similar to those used in previous experiments with mice (Agbenyega E T, and Wareham A C. Effect of clenbuterol on skeletal muscle atrophy in mice induced by the glucocorticoid dexamethasone. Comp Biochem Physiol Comp Physiol 1992;102:141-145, Rothwell N. J., and Stock M J. Modification of body composition by clenbuterol in normal and dystrophic (mdx) mice. Biosci Rep 1985;5:755-760, Hyltander A, Svaninger G, and Lundholm K. The effect of clenbuterol on body composition in spontaneously eating tumour-bearing mice. Biosci Rep 1993;13:325-331, Hayes A, and Williams DA. Long-term clenbuterol administration alters the isometric contractile properties of skeletal muscle from normal and dystrophin-deficient mdx mice. Clin Exp Pharmacol Physiol 1994;21:757-765, Dupont-Versteegden EE. Exercise and clenbuterol as strategies to decrease the progression of muscular dystrophy in mdx mice. J Appl Physiol 1996;80:734-741).\nDaily Observations: Food intake was measured daily, while body weight and body temperatures were measured on days 0, 3, 7, 10, 14, 17, and 20 at approximately the same time of day (1300 hours) during the treatment period. […]"}, "male and female ICR mice": {"tested_on": "male and female ICR mice", "experiment": "21 day oral (diet) treatment of mice: selected tissue weights, fat pads, BAT, muscle, organs (Example 1)", "assay_type": "in vivo", "conditions": "21 days; for BAT tissue weight, mean / Biceps tissue weight, mean / Epi/Par tissue weight, mean / Ing tissue weight, mean / Rp tissue weight, mean: male and female mice; for Par weight, mean: females; for Epi weight, mean: males", "method": "as §1, §2\nas §3, with “1996;80:734-741). […]” for “1996;80:734-741).”"}, "[2]": {"tested_on": "Epi/Par fat pads (white adipose tissue)", "experiment": "Adipose tissue apoptosis assay, % DNA fragmentation (Example 1)", "assay_type": "in vivo, mice", "conditions": "21 days", "method": "as §2, §3\nDNA Isolation and Apoptosis Assay: Only the Epi and Par fat pads had sufficient tissue for the apoptosis assay. Apoptosis was assayed in two ways: DNA isolated from fat tissue was separated into two fractions: fragmented and genomic DNA. First, the fragmented DNA was run on an agarose gel in order to identify a ladder pattern of internucleosomal DNA degradation that is characteristic of apoptosis. Second, apoptosis was quantified as the ratio of fragmented- to total-DNA, multiplied by 100. Briefly, approximately 50 mg of the Epi or Par white adipose tissue was homogenized in lysis buffer (10 mM Tris-HCL, pH 8.0, 10 mM EDTA, pH 8.0; 0.5% Triton X-100) and centrifuged at 14,000× g for 15 min to separate fragmented DNA from genomic DNA. The supernatant, containing fragmented DNA, was extracted with phenol-chloroform-isoamyl alcohol (25:24:1), and the DNA was precipitated by adding polyacryl carrier (Molecular Research Center, Inc., Cincinnati, Ohio) and ethanol. Genomic (non-fragmented) DNA was extracted from the pellet with DNAzol and the polyacryl carrier. DNA in each fraction was quantified by the PicoGreen method (Molecular Probes, Inc., Eugene, Oreg.) and fluorescence was measured using a SpectroMax Gemini (Molecular Devices).\nStatistical Analysis: Analysis of variance (SAS) was used to determine significance of treatment and gender effects. […]"}, "cardiac myocytes": {"tested_on": "cardiac myocytes", "conditions": "via β1-AR stimulation; cited from earlier work"}, "adipocytes": {"tested_on": "adipocytes", "conditions": "leptin administration; cited from earlier work"}, "[3]": {"conditions": "200 ppm clenbuterol, 800 ppm ractopamine in diet, p<0.05, hydrochloride"}},
  "note": "“Also recorded” adds a separate entry of the source. Counter-ions that a name gives are not always drawn. Marks after values point to notes of the source that are not given here.",
  "data": [
    {"compound": "CC(CCc1ccc(O)cc1)NCC(O)c1ccc(O)cc1", "note": "(racemic) [Ractopamine, ractopamine hydrochloride]", "values": [
      {"measurement": "Cumulative Feed Intake", "setting": "[1]; 200 ppm in diet", "value": 5.92, "unit": "g"},
      {"measurement": "Densitometry Bone Mineral Content", "setting": "[1]; 200 ppm in diet", "value": 0.67, "unit": "g"},
      {"measurement": "Densitometry Fat", "setting": "[1]; 200 ppm in diet", "value": 3.00, "unit": "g"},
      {"measurement": "Densitometry Lean", "setting": "[1]; 200 ppm in diet", "value": 25.63, "unit": "g"},
      {"measurement": "Feed Efficiency", "setting": "[1]; 200 ppm in diet", "value": 15.8},
      {"measurement": "Final Body Weight", "setting": "[1]; 200 ppm in diet", "value": 31.4, "unit": "g"},
      {"measurement": "Weight Gain", "setting": "[1]; 200 ppm in diet", "value": 8.25, "unit": "g"},
      {"measurement": "Cumulative Feed Intake", "setting": "[1]; 800 ppm in diet", "value": 6.39, "unit": "g"},
      {"measurement": "Densitometry Bone Mineral Content", "setting": "[1]; 800 ppm in diet", "value": 0.67, "unit": "g"},
      {"measurement": "Densitometry Fat", "setting": "[1]; 800 ppm in diet", "value": 3.01, "unit": "g"},
      {"measurement": "Densitometry Lean", "setting": "[1]; 800 ppm in diet", "value": 27.42, "unit": "g"},
      {"measurement": "Feed Efficiency", "setting": "[1]; 800 ppm in diet", "value": 16.6},
      {"measurement": "Final Body Weight", "setting": "[1]; 800 ppm in diet", "value": 31.5, "unit": "g"},
      {"measurement": "Weight Gain", "setting": "[1]; 800 ppm in diet", "value": 8.32, "unit": "g"},
      {"measurement": "Effect on body temperature, food intake, body weight, feed efficiency, body composition", "setting": "[1]; diet, hydrochloride", "value": "not significantly affected; also recorded: Neither clenbuterol nor ractopamine affected"},
      {"measurement": "Rp and Epi/Par fat pad weights compared to control", "setting": "male and female ICR mice; [3]", "value": "reduced; also recorded: decreased"},
      {"measurement": "BAT tissue weight, mean", "setting": "male and female ICR mice; 200 ppm in diet", "value": ".096"},
      {"measurement": "Biceps tissue weight, mean", "setting": "male and female ICR mice; 200 ppm in diet", "value": ".128"},
      {"measurement": "Epi/Par tissue weight, mean", "setting": "male and female ICR mice; 200 ppm in diet", "value": ".295"},
      {"measurement": "Ing tissue weight, mean", "setting": "male and female ICR mice; 200 ppm in diet", "value": ".230"},
      {"measurement": "Rp tissue weight, mean", "setting": "male and female ICR mice; 200 ppm in diet", "value": ".058"},
      {"measurement": "BAT tissue weight, mean", "setting": "male and female ICR mice; 800 ppm in diet", "value": ".095"},
      {"measurement": "Biceps tissue weight, mean", "setting": "male and female ICR mice; 800 ppm in diet", "value": ".158"},
      {"measurement": "Epi/Par tissue weight, mean", "setting": "male and female ICR mice; 800 ppm in diet", "value": ".207"},
      {"measurement": "Ing tissue weight, mean", "setting": "male and female ICR mice; 800 ppm in diet", "value": ".176"},
      {"measurement": "Rp tissue weight, mean", "setting": "male and female ICR mice; 800 ppm in diet", "value": ".039"},
      {"measurement": "Retroperitoneal (Rp) fat pad mass", "setting": "male and female ICR mice; 800 ppm in diet, mice, control 66±8 mg", "value": "40 ± 3", "unit": "mg"},
      {"measurement": "Epididymal/parametrial (Epi/Par) fat pad mass", "setting": "male and female ICR mice; 800 ppm in diet, mice, control 319±30 mg", "value": "207 ± 20", "unit": "mg"},
      {"measurement": "Muscle mass / muscle weight, body protein or fat content", "setting": "male and female ICR mice; diet, ICR mice", "value": "no effect"},
      {"measurement": "Par weight, mean", "setting": "male and female ICR mice; 200 ppm in diet", "value": ".22^b"},
      {"measurement": "Par weight, mean", "setting": "male and female ICR mice; 800 ppm in diet", "value": ".22^b"},
      {"measurement": "Epi weight, mean", "setting": "male and female ICR mice; 200 ppm in diet", "value": ".36^a"},
      {"measurement": "Epi weight, mean", "setting": "male and female ICR mice; 800 ppm in diet", "value": ".19^b"},
      {"measurement": "Percent DNA fragmentation (apoptosis) in the Epi/Par fat pad compared to control", "setting": "[2]; [3]", "value": "significant increase in apoptosis"},
      {"measurement": "Adipose tissue apoptosis (% DNA fragmentation) in Epi/Par fat pads", "setting": "[2]; 800 ppm in diet, mice, control 1.7±0.4%", "value": "4.1±0.8", "unit": "%"},
      {"measurement": "DNA fragmentation in retroperitoneal or inguinal fat pads", "setting": "[2]; diet, mice", "value": "Neither clenbuterol nor ractopamine treatments increased"}
    ]},
    {"compound": "NC[C@H](O)c1ccc(O)c(O)c1", "note": "[norepinephrine]", "values": [
      {"measurement": "Apoptosis of cardiac myocytes", "setting": "cardiac myocytes", "value": "induce apoptosis"}
    ]},
    {"compound": "leptin: leptin, administration shown in previous experiments to increase apoptosis of adipocytes", "values": [
      {"measurement": "Apoptosis of adipocytes", "setting": "adipocytes", "value": "increase apoptosis"}
    ]}
  ]
}
